Data reported in patent publication US6737383B1, “Herbicidal oxadiazolidines” (priority 1999, dated 2004).

Experiments:
bedstraw = assay: Test B pre/postemergence bedstraw; type: in vivo, Galium aparine
Summary of the method: (§1)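 Response is a visual 0-to-10 score relative to untreated plants, where 0 means no effect and 10 means complete control, taken twelve to sixteen days after application. Treatments went onto soil at planting and onto foliage of 1- to 4-leaf plants, using a surfactant-containing non-phytotoxic solvent.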

surinam grass = assay: Test B pre/postemergence surinam grass; type: in vivo, Brachiaria decumbens
Summary of the method: as §1

wild oat [1] = assay: Test B pre/postemergence wild oat; type: in vivo, Avena fatua
Summary of the method: as §1

bamyardgrass = assay: Test B flood test barnyardgrass; type: in vivo, Echinochloa crus-galli
Summary of the method: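 Plants were grown to the 2-leaf stage before treatment with test chemical, then held in a greenhouse for twelve to sixteen days. Injury was visually rated against untreated controls on a 0–10 scale, where 0 is no effect and 10 is complete control.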

winter wheat [2] = assay: Test E winter wheat; type: in vivo, Triticum aestivum; details: Postemergence; for Plant response rating, Wheat (winter): 0 to 100 scale, 0 is no effect, 100 is complete control; for Wheat (winter) plant response rating: 0 to 100 scale where 0 is no effect and 100 is complete control
Summary of the method: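 Plants were grown under normal greenhouse practice; for postemergence, in sandy loam soil mixed 60:40 with potting mix, treated at the 1- to 4-leaf stage. The compound was in a non-phytotoxic solvent carrying a surfactant. After roughly 21 to 28 days plants were scored visually against untreated plants.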

blackgrass = assay: Test E blackgrass; type: in vivo, Alopecurus myosuroides; details: Preemergence
green foxtail = assay: Test E green foxtail; type: in vivo, Setaria viridis; details: Preemergence
Italian ryegrass = assay: Test E Italian ryegrass; type: in vivo, Lolium multiflorum; details: Preemergence
winter wheat [3] = assay: Test E winter wheat; type: in vivo, Triticum aestivum; details: Preemergence
wild oat [4] = assay: Test E wild oat; type: in vivo, Avena fatua; details: Preemergence
winter barley = assay: Test E winter barley; type: in vivo, Hordeum vulgare; details: Preemergence
[5] = Preemergence, Rate 62 g/ha, scale of 0 to 10 where 0 is no effect and 10 is complete control
[6] = Preemergence, Rate 250 g/ha, scale of 0 to 10 where 0 is no effect and 10 is complete control
[7] = Preemergence, Rate 500 g/ha, scale of 0 to 10 where 0 is no effect and 10 is complete control
[8] = Rate 62 g/ha, Postemergence, scale 0 to 10 (0 no effect, 10 complete control)
[9] = Rate 125 g/ha, Postemergence, scale of 0 to 10 where 0 is no effect and 10 is complete control
[10] = Rate 125 g/ha, Preemergence, scale of 0 to 10 where 0 is no effect and 10 is complete control
[11] = Rate 250 g/ha, Postemergence, scale of 0 to 10 where 0 is no effect and 10 is complete control
[12] = Rate 500 g/ha, Postemergence, scale 0 to 10, 0 no effect, 10 complete control
[13] = Rate 62 g/ha, headed Pre-emergence (flood test species), scale 0 to 10 (0 no effect, 10 complete control)
[14] = Rate 125 g/ha, Pre-emergence, flood test species, scale 0 to 10 where 0 is no effect and 10 is complete control
[15] = Rate 250 g/ha, Pre-emergence, flood-test species, scale 0 to 10, 0 is no effect, 10 is complete control
[16] = Rate 500 g/ha, Pre-emergence, flood test species, scale 0 to 10 (0 no effect, 10 complete control)
[17] = Rate 125 g/ha, 0 to 100 scale (0 no effect, 100 complete control)
[18] = Rate 500 g/ha, 0 to 100 scale (0 no effect, 100 complete control)
[19] = Postemergence, Rate 31 g/ha, visual rating, scale 0 to 10 (0 no effect, 10 complete control)
[20] = Preemergence, Rate 31 g/ha, visual rating, scale 0 to 10 (0 no effect, 10 complete control)

COCn1c(=O)on(C(=O)N(c2ccc(F)cc2)C(C)C)c1=O [Compound 293]
1: Wild oats plant response rating (wild oat [1]; [5])
70: Green foxtail plant response rating (0 to 100 scale) (green foxtail; Rate 250 g/ha)
55: Plant response rating, Green foxtail (green foxtail; [17]) | Plant response rating, Wheat (winter) (winter wheat [3]; [18])
2: Bedstraw plant response rating (bedstraw; [9]) | B. signalgrass plant response rating (surinam grass; [5])
40: Plant response rating, Blackgrass (blackgrass; [17]) | Plant response rating, Wheat (winter) (winter wheat [3]; [17]) | Plant response rating, Barley (winter) (winter barley; [17]) | Barley (winter) plant response rating (0 to 100 scale) (winter barley; Rate 250 g/ha)
10: Wild oat plant response rating (0 to 100 scale) (wild oat [4]; Rate 250 g/ha)
60: Plant response rating, Green foxtail (green foxtail; [18])
30: Wheat (winter) plant response rating (winter wheat [2]; Rate 250 g/ha) | Plant response rating, I. Ryegrass (Italian ryegrass; [17])
50: Plant response rating, Wheat (winter) (winter wheat [2]; Rate 125 g/ha) | Plant response rating, Wheat (winter) (winter wheat [2]; Rate 500 g/ha) | Plant response rating, Blackgrass (blackgrass; [18]) | I. Ryegrass plant response rating (0 to 100 scale) (Italian ryegrass; Rate 250 g/ha) | Plant response rating, I. Ryegrass (Italian ryegrass; [18]) | Wheat (winter) plant response rating (0 to 100 scale) (winter wheat [3]; Rate 250 g/ha) | Plant response rating, Wild oat (wild oat [4]; [18]) | Plant response rating, Barley (winter) (winter barley; [18])
9: Bedstraw plant response rating (bedstraw; [12]) | Plant response rating, B. signalgrass (surinam grass; [7]) | Plant response rating, Wild oats (wild oat [1]; [7])
5: Barnyardgrass plant response rating (bamyardgrass; [16])
7: B. signalgrass plant response rating (surinam grass; [6]) | Plant response rating, B. signalgrass (surinam grass; [11]) | B. signalgrass plant response rating (surinam grass; [12])
8: Wild oats plant response rating (wild oat [1]; [6])
0: Bedstraw plant response rating (bedstraw; [5]) | Bedstraw plant response rating (bedstraw; [6]) | Plant response rating, Bedstraw (bedstraw; [7]) | Bedstraw plant response rating (bedstraw; [8]) | Bedstraw plant response rating (bedstraw; [10]) | B. signalgrass plant response rating (surinam grass; [8]) | B. signalgrass plant response rating (surinam grass; [9]) | Wild oats plant response rating (wild oat [1]; [8]) | Wild oats plant response rating (wild oat [1]; [9]) | Barnyardgrass plant response rating (bamyardgrass; [13]) | Barnyardgrass plant response rating (bamyardgrass; [14]) | Barnyardgrass plant response rating (bamyardgrass; [15]) | Plant response rating, Wild oat (wild oat [4]; [17])
3: Plant response rating, Bedstraw (bedstraw; [11]) | B. signalgrass plant response rating (surinam grass; [10]) | Plant response rating, Wild oats (wild oat [1]; [11])

CCOCn1c(=O)on(C(=O)N(c2ccc(F)cc2)C(C)C)c1=O [Compound 295]
30: Plant response rating, Wheat (winter) (winter wheat [2]; Rate 125 g/ha) | Barley (winter) plant response rating (0 to 100 scale) (winter barley; Rate 250 g/ha)
10: Blackgrass plant response rating (0 to 100 scale) (blackgrass; Rate 250 g/ha) | Wild oat plant response rating (0 to 100 scale) (wild oat [4]; Rate 250 g/ha)
8: B. signalgrass plant response rating (surinam grass; [6])
50: Wheat (winter) plant response rating (winter wheat [2]; Rate 250 g/ha) | Plant response rating, Green foxtail (green foxtail; [17]) | I. Ryegrass plant response rating (0 to 100 scale) (Italian ryegrass; Rate 250 g/ha)
9: Wild oats plant response rating (wild oat [1]; [6])
2: Wild oats plant response rating (wild oat [1]; [5]) | Plant response rating, Wild oats (wild oat [1]; [11])
3: B. signalgrass plant response rating (surinam grass; [20])
60: Wheat (winter) plant response rating (0 to 100 scale) (winter wheat [3]; Rate 250 g/ha)
100: Green foxtail plant response rating (0 to 100 scale) (green foxtail; Rate 250 g/ha)
0: Bedstraw plant response rating (bedstraw; [19]) | Bedstraw plant response rating (bedstraw; [20]) | Bedstraw plant response rating (bedstraw; [5]) | Bedstraw plant response rating (bedstraw; [6]) | Bedstraw plant response rating (bedstraw; [8]) | Bedstraw plant response rating (bedstraw; [10]) | B. signalgrass plant response rating (surinam grass; [19]) | B. signalgrass plant response rating (surinam grass; [8]) | B. signalgrass plant response rating (surinam grass; [9]) | Wild oats plant response rating (wild oat [1]; [19]) | Wild oats plant response rating (wild oat [1]; [20]) | Wild oats plant response rating (wild oat [1]; [8]) | Wild oats plant response rating (wild oat [1]; [9]) | Barnyardgrass plant response rating (bamyardgrass; Rate 31 g/ha, Pre-emergence section (flood test species), scale 0 to 10) | Barnyardgrass plant response rating (bamyardgrass; [13]) | Barnyardgrass plant response rating (bamyardgrass; [14]) | Barnyardgrass plant response rating (bamyardgrass; [15]) | Plant response rating, Blackgrass (blackgrass; [17]) | Plant response rating, Wild oat (wild oat [4]; [17])
5: Plant response rating, B. signalgrass (surinam grass; [11])
40: Plant response rating, I. Ryegrass (Italian ryegrass; [17]) | Plant response rating, Wheat (winter) (winter wheat [3]; [17])
4: Bedstraw plant response rating (bedstraw; [9]) | Plant response rating, Bedstraw (bedstraw; [11])
20: Plant response rating, Barley (winter) (winter barley; [17])
6: B. signalgrass plant response rating (surinam grass; [5]) | B. signalgrass plant response rating (surinam grass; [10])

CSCCn1c(=O)on(C(=O)N(c2ccc(F)cc2)C(C)C)c1=O [Compound 314]
6: B. signalgrass plant response rating (surinam grass; [6]) | B. signalgrass plant response rating (surinam grass; [7])
2: Bedstraw plant response rating (bedstraw; [8]) | B. signalgrass plant response rating (0 to 10 scale, 0 is no effect, 10 is complete control) (surinam grass; Preemergence, Rate 125 g/ha) | Wild oats plant response rating (0 to 10 scale) (wild oat [1]; Preemergence, Rate 125 g/ha) | Wild oats plant response rating (wild oat [1]; [6]) | Plant response rating, Wild oats (wild oat [1]; [11])
4: Bedstraw plant response rating (bedstraw; [9])
55: Plant response rating, I. Ryegrass (Italian ryegrass; Rate 250 g/ha, 0 to 100 scale)
3: Bedstraw plant response rating (bedstraw; [7]) | B. signalgrass plant response rating (surinam grass; [12]) | Wild oats plant response rating (wild oat [1]; [7])
50: Plant response rating, Blackgrass (blackgrass; Rate 250 g/ha, 0 to 100 scale) | Plant response rating, I. Ryegrass (Italian ryegrass; [17]) | Plant response rating, Barley (winter) (winter barley; [17])
0: Bedstraw plant response rating (bedstraw; [5]) | Bedstraw plant response rating (0 to 10 scale) (bedstraw; Preemergence, Rate 125 g/ha) | Bedstraw plant response rating (bedstraw; [6]) | B. signalgrass plant response rating (surinam grass; [5]) | B. signalgrass plant response rating (surinam grass; [8]) | B. signalgrass plant response rating (surinam grass; [9]) | Plant response rating, B. signalgrass (surinam grass; [11]) | Wild oats plant response rating (wild oat [1]; [5]) | Wild oats plant response rating (wild oat [1]; [8]) | Wild oats plant response rating (wild oat [1]; [9]) | Barnyardgrass plant response rating (bamyardgrass; [13]) | Barnyardgrass plant response rating (bamyardgrass; [14]) | Barnyardgrass plant response rating (bamyardgrass; [15]) | Barnyardgrass plant response rating (bamyardgrass; [16])
70: Plant response rating, Wheat (winter) (winter wheat [2]; Rate 250 g/ha) | Plant response rating, Wheat (winter) (winter wheat [3]; Rate 250 g/ha, 0 to 100 scale) | Plant response rating, Wild oat (wild oat [4]; [17]) | Plant response rating, Wild oat (wild oat [4]; Rate 250 g/ha, 0 to 100 scale)
60: Plant response rating, Green foxtail (green foxtail; [17]) | Plant response rating, Barley (winter) (winter barley; Rate 250 g/ha, 0 to 100 scale, 0 no effect, 100 complete control)
40: Plant response rating, Blackgrass (blackgrass; [17])
85: Plant response rating, Green foxtail (green foxtail; Rate 250 g/ha, 0 to 100 scale)
65: Plant response rating, Wheat (winter) (winter wheat [2]; Rate 125 g/ha) | Plant response rating, Wheat (winter) (winter wheat [3]; [17])
